{"source": "paper PMC3078184", "about": "(Cancer research, 2011)", "key": {"ABCB1": {"molecular_target": "ABCB1 (Homo sapiens, UniProt P08183)", "sequence (P08183 whole entry)": "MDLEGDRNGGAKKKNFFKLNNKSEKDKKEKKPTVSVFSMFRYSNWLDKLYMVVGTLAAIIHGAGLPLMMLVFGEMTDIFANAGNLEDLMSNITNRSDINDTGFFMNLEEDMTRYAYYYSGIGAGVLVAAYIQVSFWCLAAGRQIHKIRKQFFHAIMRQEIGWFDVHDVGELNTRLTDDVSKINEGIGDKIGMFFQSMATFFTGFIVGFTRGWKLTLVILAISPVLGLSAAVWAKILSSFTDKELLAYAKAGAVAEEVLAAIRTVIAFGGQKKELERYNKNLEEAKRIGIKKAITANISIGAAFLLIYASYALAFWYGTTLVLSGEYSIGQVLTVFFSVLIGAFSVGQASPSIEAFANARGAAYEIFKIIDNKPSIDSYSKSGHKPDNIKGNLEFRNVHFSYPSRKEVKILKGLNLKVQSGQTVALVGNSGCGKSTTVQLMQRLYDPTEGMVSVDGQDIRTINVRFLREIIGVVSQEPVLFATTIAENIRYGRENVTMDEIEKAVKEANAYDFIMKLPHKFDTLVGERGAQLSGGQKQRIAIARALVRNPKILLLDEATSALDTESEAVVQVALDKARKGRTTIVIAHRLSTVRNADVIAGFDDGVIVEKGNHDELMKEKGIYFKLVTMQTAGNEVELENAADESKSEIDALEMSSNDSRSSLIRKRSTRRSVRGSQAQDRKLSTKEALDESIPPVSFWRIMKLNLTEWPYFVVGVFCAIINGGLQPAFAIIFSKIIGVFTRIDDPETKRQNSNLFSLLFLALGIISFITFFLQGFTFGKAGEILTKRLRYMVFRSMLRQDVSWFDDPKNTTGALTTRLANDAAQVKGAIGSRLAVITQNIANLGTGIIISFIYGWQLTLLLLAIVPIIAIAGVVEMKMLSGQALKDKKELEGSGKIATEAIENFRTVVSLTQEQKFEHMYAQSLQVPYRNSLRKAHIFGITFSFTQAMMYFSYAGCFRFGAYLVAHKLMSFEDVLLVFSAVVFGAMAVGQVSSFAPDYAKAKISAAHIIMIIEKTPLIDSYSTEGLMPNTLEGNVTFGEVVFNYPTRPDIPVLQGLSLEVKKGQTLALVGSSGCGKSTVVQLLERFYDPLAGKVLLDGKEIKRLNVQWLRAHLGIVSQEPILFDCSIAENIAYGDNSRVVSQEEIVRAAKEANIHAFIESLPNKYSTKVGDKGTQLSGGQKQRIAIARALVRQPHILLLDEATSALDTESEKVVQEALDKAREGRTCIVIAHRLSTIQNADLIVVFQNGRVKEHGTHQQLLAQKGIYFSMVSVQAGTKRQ", "assay": "vanadate-sensitive ATPase stimulation in membrane vesicles", "type": "biochemical"}, "ABCG2": {"molecular_target": "T1, ABCG2 (Homo sapiens, UniProt Q9UNQ0)", "T1 sequence (Q9UNQ0 1-655)": "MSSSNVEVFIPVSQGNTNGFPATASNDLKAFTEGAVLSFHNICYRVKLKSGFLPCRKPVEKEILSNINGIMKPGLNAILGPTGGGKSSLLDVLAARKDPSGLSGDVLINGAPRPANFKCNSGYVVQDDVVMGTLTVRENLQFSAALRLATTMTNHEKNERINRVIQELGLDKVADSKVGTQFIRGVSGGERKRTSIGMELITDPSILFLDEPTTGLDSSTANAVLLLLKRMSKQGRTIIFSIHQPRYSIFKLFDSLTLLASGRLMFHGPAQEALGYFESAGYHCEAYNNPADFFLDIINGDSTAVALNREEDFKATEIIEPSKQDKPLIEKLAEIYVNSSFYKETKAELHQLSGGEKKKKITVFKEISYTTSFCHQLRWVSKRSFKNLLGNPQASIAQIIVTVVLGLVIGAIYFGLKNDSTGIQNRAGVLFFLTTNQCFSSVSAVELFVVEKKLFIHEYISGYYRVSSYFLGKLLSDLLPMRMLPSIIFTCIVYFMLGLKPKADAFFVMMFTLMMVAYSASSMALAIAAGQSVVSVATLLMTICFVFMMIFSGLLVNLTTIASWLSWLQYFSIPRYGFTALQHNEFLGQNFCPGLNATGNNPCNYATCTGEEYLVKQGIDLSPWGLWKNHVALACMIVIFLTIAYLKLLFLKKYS", "assay": "vanadate-sensitive ATPase stimulation in membrane vesicles", "type": "biochemical"}}, "note": "pEC50: −log10 of the molar value.", "data": [{"compound": "CCCc1nn(C)c2c(=O)[nH]c(-c3cc(S(=O)(=O)N4CCN(C)CC4)ccc3OCC)nc12", "note": "[Sildenafil]", "values": [{"measurement": "pEC50", "setting": "ABCB1", "result": "5.00 to 5.30"}, {"measurement": "pEC50", "setting": "ABCG2", "result": "6.30 to 6.60"}]}]}
